Data on 8 molecules can be found in patent US7763596B2, “Selective glucocorticoid receptor agonists” (The University of Manchester, priority 2000, dated 2010).

Each structure is given as a SMILES string.

Test [1] deals with IL-8. The experiment in a line: Repression of endogenous IL-8 in A549s. It is filed as cell-based, human. The note with it: A549 cells; compound G at 100 nM, p=0.0076. The source says: The A549 cell line (ECACC:86012804) is derived from the human lung epithelial cells from a carcinoma. This cell line contains functional endogenous GR and is stimulated by Tumour Necrosis Factor (TNF) to produce IL-8.
In this assay TNF was used to stimulate NFkB activity in a cell line that expressed endogenous GR. The ability of NFkB to induce IL-8 gene transcription could then be repressed by GR in a ligand dependent manner and, therefore, used to measure transrepression.
COS7 cells were transfected with 3 μg NRE-Luc per 10 cm tissue culture dish. The cells were plated out in to 24 well plates after transfection and left for 18 hours to recover before the steroids of FIGS. 1 and 2A were added. After incubation for 3 hours with the steroids, TNF was added to the samples and after another 15 hours an IL-8 assay (R&D systems) was performed on the cell supernatants according to the manufacturers instructions. Briefly, triplicates of 100 μl of a 1:2 dilution of cell supernatant and 100 μl of a known dilution series of IL-8 were added to the wells of a microtitre plate coated with a monoclonal IL-8 antibody, the samples were incubated with a polyclonal biotinylated IL-8 antibody for 1 hour at room temperature and washed. Streptavidin horse radish peroxidase solution was then added to all wells and incubated for 30 mins before being washed. Tetramethyl benzidine (TMB; a chromagen) was added to all the wells and incubated in the dark for 10 mins, the reaction was stopped by the addition of H2SO4 and the absorbance of each well was read on a spectrophotometer using 450 nm as the primary wavelength. Regression analysis was performed on the standard data and the unknowns were expressed as pg/ml of IL-8 in comparison to the standards.

Test [2] has as its target T1, GR ligand binding domain / SRC-1 (Homo sapiens, UniProt P04150).
T1 construct: expressed in transfected cells
T1 sequence (P04150 524-758 limits assumed): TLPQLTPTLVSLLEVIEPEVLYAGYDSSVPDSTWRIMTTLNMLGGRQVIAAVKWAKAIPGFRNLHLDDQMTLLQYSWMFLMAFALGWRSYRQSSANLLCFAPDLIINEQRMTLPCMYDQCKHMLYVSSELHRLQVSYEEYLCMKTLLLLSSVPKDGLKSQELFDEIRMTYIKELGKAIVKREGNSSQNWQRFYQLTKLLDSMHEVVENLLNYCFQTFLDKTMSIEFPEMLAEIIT
In words: SRC-1 association assay by mammalian two-hybrid analysis. Conditions: for SRC-1 recruitment at the highest concentration tested: 100 nM. It is filed as cell-based. The source says:
SRC-1 is an important co-activator of GR action that associates with the GR in a ligand dependant manner. The ability of SRC-1 to associate with the GR in this manner can be used as a measure of potency of ligand mediated transactivation. To perform this assay plasmids that generated VP16-GR ligand binding domain (LBD) and GAL4-SRC-1 fusion proteins and a GAL4 binding luciferase reporter gene construct were transfected into in a cell line lacking GR and deficient in endogenous SRC-1. The GAL4-SRC-1 fusion protein could bind to specific sites upstream of the luciferase reporter gene construct. If the SRC-1 fusion protein associated with the ligand bound VP16-GRLBD fusion protein then the VP-16 activation domain augmented the luciferase gene expression.

The target in test [3] is T2, progesterone receptor (Homo sapiens, UniProt P06401).
T2 sequence (P06401 1-933): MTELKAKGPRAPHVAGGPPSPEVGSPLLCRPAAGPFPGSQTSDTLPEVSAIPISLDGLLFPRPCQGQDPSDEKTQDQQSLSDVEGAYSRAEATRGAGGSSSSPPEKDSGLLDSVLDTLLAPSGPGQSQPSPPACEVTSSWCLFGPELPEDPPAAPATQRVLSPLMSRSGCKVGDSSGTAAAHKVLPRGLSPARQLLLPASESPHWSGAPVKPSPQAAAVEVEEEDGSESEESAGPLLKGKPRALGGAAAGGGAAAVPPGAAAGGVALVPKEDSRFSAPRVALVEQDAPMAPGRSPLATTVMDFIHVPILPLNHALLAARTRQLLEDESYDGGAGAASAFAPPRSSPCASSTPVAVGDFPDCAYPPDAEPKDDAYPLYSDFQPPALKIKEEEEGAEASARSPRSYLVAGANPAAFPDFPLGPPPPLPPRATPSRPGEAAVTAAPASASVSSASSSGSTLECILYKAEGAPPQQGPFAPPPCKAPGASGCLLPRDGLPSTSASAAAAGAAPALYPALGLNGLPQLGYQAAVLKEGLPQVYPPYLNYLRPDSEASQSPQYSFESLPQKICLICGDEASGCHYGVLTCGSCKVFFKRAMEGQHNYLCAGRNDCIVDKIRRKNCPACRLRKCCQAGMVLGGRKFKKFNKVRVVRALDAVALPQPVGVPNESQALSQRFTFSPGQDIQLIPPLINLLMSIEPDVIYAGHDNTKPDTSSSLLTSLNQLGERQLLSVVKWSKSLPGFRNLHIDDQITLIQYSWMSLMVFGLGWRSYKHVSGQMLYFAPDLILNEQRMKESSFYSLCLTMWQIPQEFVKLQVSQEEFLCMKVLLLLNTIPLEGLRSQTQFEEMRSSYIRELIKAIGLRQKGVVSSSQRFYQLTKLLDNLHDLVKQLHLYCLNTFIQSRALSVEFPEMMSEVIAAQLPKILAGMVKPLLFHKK
In words: Classic receptor binding assay, progesterone receptor (data not shown).

Test [4] has as its target T3, progesterone receptor (PRB) (Homo sapiens, UniProt P06401).
T3 construct: expressed in transfected cells; host or cells: COS 7
T3 sequence (P06401 1-933): T2 sequence (P06401 1-933)
The experiment in a line: Progestogen activity assay using progesterone receptor transactivation. It is filed as cell-based. The note with it: 100 nM; for PRB reporter gene activation: AH3-luc reporter, COS7. From the text:
As the GR LBD has strong homology with the PR LBD there is a chance that any of the tested steroids of FIGS. 1 and 2A that activate one of these receptors may also activate the other. The presence of illegitimate progestogen activity associated with the steroids of FIGS. 1 and 2A was examined using a transactivation assay with the PR instead of the GR.
The PR was artificially expressed in a cell line lacking endogenous PR and a GRE “driving” a luciferase reporter gene was used to measure ligand dependent activation.
COS7 cells were transfected with 1 μg pSEO-PRB and 3 μg AH3-Luc per 10 cm tissue culture dish. The cells were plated out in to 24 well plates after transfection and the steroids of FIGS. 1 and 2A were added immediately to generate a final concentration of 100 nM. After 18 hour incubation the cells were lysed and a luciferase assay was performed.
(In general: Reporter assays use an easily measured gene product as a stand-in for the process of interest.)

Regarding `CC1CC2C3CCC4=CC(=O)C=CC4(C)C3(F)C(O)CC2(C)C12OC(C)(C)OCC2=O` (stereo not shown) [Compound A], the “repression of IL-8 production after TNF activation” value (shortened to “repression of IL-8 production”) in test [1] is “exhibited transrepression”. Also, the “SRC-1 recruitment, sub-maximal response” value in test [2] (1, 10 and 100 nM, relative to dexamethasone) is listed as about 50%.

As to `CC1CC2C3CCC4=CC(=O)C=CC4(C)C3(F)C(O)CC2(C)C1(O)C(=O)COC(=O)c1ccc(F)cc1` (stereo not shown) [Compound D], the “repression of IL-8 production” value in test [1] is on record as “exhibited transrepression”. Besides, the “SRC-1 recruitment compared with dexamethasone” value in test [2] (1, 10 and 100 nM) is “recruited SRC-1 to the same extent as dexamethasone”.

For `CCCNC(=O)C1(O)C(C)CC2C3CCC4=CC(=O)C=CC4(C)C3(F)C(O)CC21C` (stereo not shown) [Compound G], in test [1], the “repression of IL-8 production” value is given as “repressed IL-8 production better than dexamethasone”. Further, the “binding to the progesterone receptor” value in test [3] is “not to bind to the progesterone receptor”. In test [2], the “SRC-1 recruitment at the highest concentration tested” value was “no SRC-1 recruitment”. Further, the “transactivation as measured by SRC-1 recruitment” value in test [2] (1 and 10 nmolar) is on record as “no transactivation as measured by SRC-1 recruitment”.

Turning to `Cc1ccc(NC(=O)C2(O)C(C)CC3C4CCC5=CC(=O)C=CC5(C)C4(F)C(O)CC32C)cc1` (stereo not shown) [Compound O], the “PRB reporter gene activation” value in test [4] is “slightly increased reporter gene activation compared to that of dexamethasone”.

For `CCCCCCNC(=O)OCC(=O)C1(O)C(C)CC2C3CCC4=CC(=O)C=CC4(C)C3(F)C(O)CC21C` (stereo not shown) [Compound T], in test [2], the “SRC-1 recruitment at the highest concentration tested” value is “significant response”. For the same molecule, in test [4], the “PRB reporter gene activation” value is listed as “slightly increased reporter gene activation compared to that of dexamethasone”.

As for `CC1CC2C3CCC4=CC(=O)C=CC4(C)C3(F)C(O)CC2(C)C1(O)C(=O)NCCCO` (stereo not shown) [L], in test [4], the “PRB activation relative to the activation generated by progesterone” value is reported as about 40% and the “PRB reporter gene activation” value was “slightly increased reporter gene activation compared to that of dexamethasone”.

As for `CC1CC2C3CCC4=CC(=O)C=CC4(C)C3(F)C(O)CC2(C)C1(O)C(=O)NCCC(=O)O` (stereo not shown) [Q], in test [4], the “PRB reporter gene activation” value is listed as “slightly increased reporter gene activation compared to that of dexamethasone”.

`CCCOC(=O)C1(O)C(C)CC2C3CCC4=CC(=O)C=CC4(C)C3(F)C(O)CC21C` (stereo not shown) [R]: the “SRC-1 recruitment at the highest concentration tested” value in test [2] is recorded as “significant response”. Besides, in test [4], the “PRB reporter gene activation” value is given as “slightly increased reporter gene activation compared to that of dexamethasone”.
